Laboratory results: patent US8962674B2 (Tokyo Institute of Technology, priority 2006, dated 2015)

| Compound | melting point [°C] |
| --- | --- |
| COc1cc(/C=C/C(=O)CC(=O)/C=C/c2ccc(O)cc2OC)ccc1O [CU085, (1E,6E)-1-(4-hydroxy-2-methoxyphenyl)-7-(4-hydroxy-3-methoxyphenyl)hepta-1,6-diene-3,5-dione] | 203 to 208 |
| COc1cc(/C=C/C(=O)CC(=O)/C=C/c2cc(Cl)cc(Cl)c2)ccc1O [CU140, (1E,6E)-1-(3,5-dichlorophenyl)-7-(4-hydroxy-3-methoxyphenyl)hepta-1,6-diene-3,5-dione] | 170 to 173 |
| COc1ccc(/C=C/C(=O)CC(=O)/C=C/c2ccc(C)c(C)c2)cc1O [CU058, (1E,6E)-1-(3,4-dimethylphenyl)-7-(3-hydroxy-4-methoxyphenyl)hepta-1,6-diene-3,5-dione] | 150 to 154 |
| COc1ccc(/C=C/C(=O)CC(=O)/C=C/c2ccc(O)c(OC)c2)cc1O [CU105, (1E,6E)-1-(3-hydroxy-4-methoxyphenyl)-7-(4-hydroxy-3-methoxyphenyl)hepta-1,6-diene-3,5-dione] | 78 to 85 |
| COc1ccc(/C=C/C(=O)CC(=O)/C=C/c2ccc(O)cc2)c(OC)c1 [CU072, (1E,6E)-1-(2,4-dimethoxyphenyl)-7-(4-hydroxyphenyl)hepta-1,6-diene-3,5-dione] | 161 to 167 |
| COc1cc(/C=C/C(=O)CC(=O)/C=C/c2ccc(O)cc2)cc(OC)c1OC [CU204, (1E,6E)-1-(4-hydroxyphenyl)-7-(3,4,5-trimethoxyphenyl)hepta-1,6-diene-3,5-dione] | 101 to 105 |
| COc1ccc(/C=C/C(=O)CC(=O)/C=C/c2cc(O)ccc2O)cc1O [CU091, (1E,6E)-1-(2,5-dihydroxyphenyl)-7-(3-hydroxy-4-methoxyphenyl)hepta-1,6-diene-3,5-dione] | 115 to 121 |
| O=C(/C=C/c1ccc(O)cc1)CC(=O)/C=C/c1ccccc1-c1cccnc1 [CU513, (1E,6E)-1-(4-hydroxyphenyl)-7-[2-(pyridin-3-yl)phenyl]hepta-1,6-diene-3,5-dione] | 180 to 189 |
| O=C(/C=C/c1ccc(O)cc1)CC(=O)/C=C/c1ccccc1-c1ccccc1 [CU472, (1E,6E)-1-(biphenyl-2-yl)-7-(4-hydroxyphenyl)hepta-1,6-diene-3,5-dione] | 180 to 188 |
| COc1cc(/C=C/C(=O)CC(=O)/C=C/c2ccc(F)c(OC)c2)ccc1O [CU138, (1E,6E)-1-(4-fluoro-3-methoxyphenyl)-7-(4-hydroxy-3-methoxyphenyl)hepta-1,6-diene-3,5-dione] | 150 to 155 |
| COc1ccc(/C=C/C(=O)CC(=O)/C=C/c2ccc(O)cc2OC)cc1O [CU086, (1E,6E)-1-(4-hydroxy-2-methoxyphenyl)-7-(3-hydroxy-4-methoxyphenyl)hepta-1,6-diene-3,5-dione] | 90 to 95 |
| CS(=O)(=O)c1ccc(/C=C/C(=O)CC(=O)/C=C/c2ccc(O)cc2)cc1 [CU203, (1E,6E)-1-(4-hydroxyphenyl)-7-(4-methanesulfonylphenyl)hepta-1,6-diene-3,5-dione] | 221 to 224 |
| COc1cc(/C=C/C(=O)CC(=O)/C=C/c2ccc3[nH]ccc3c2)ccc1O [CU188, (1E,6E)-1-(4-hydroxy-3-methoxyphenyl)-7-(1H-indol-5-yl)hepta-1,6-diene-3,5-dione] | 135 to 138 |
| CC(C)(C)OC(=O)Nc1ccc(/C=C/C(=O)CC(=O)/C=C/c2ccc(O)cc2)cc1 [CU405, (1E,6E)-1-[4-(tert-butoxycarbonylamino)phenyl]-7-(4-hydroxyphenyl)hepta-1,6-diene-3,5-dione] | 181 to 184 |
| Cc1ccc(Oc2ncccc2/C=C/C(=O)CC(=O)/C=C/c2ccc(O)cc2)cc1 [CU340, (1E,6E)-1-(4-hydroxyphenyl)-7-[2-(4-methylphenoxy)pyridin-3-yl]hepta-1,6-diene-3,5-dione] | 180 to 185 |
| COc1cc(/C=C/C(=O)CC(=O)/C=C/c2ccc(OC)c3ccccc23)ccc1O [CU118, (1E,6E)-1-(4-hydroxy-3-methoxyphenyl)-7-(4-methoxynaphthalen-1-yl)hepta-1,6-diene-3,5-dione] | 193 to 196 |
| COc1c(O)cccc1/C=C/C(=O)CC(=O)/C=C/c1cccc(O)c1OC [CU363, (1E,6E)-1,7-bis(3-hydroxy-2-methoxyphenyl)hepta-1,6-diene-3,5-dione] | 62 to 65 |
| COc1ccc(/C=C/C(=O)CC(=O)/C=C/c2cc(Cl)cc(Cl)c2)cc1O [CU141, (1E,6E)-1-(3,5-dichlorophenyl)-7-(3-hydroxy-4-methoxyphenyl)hepta-1,6-diene-3,5-dione] | 176 to 183 |
| COc1cc(/C=C/C(=O)CC(=O)/C=C/c2cccc(OC)c2OC)ccc1O [CU070, (1E,6E)-1-(2,3-dimethoxyphenyl)-7-(4-hydroxy-3-methoxyphenyl)hepta-1,6-diene-3,5-dione] | 57 to 65 |
| CN(C)c1ccc(/C=C/C(=O)CC(=O)CCc2ccc(O)cc2)c(Cl)c1 [CU524, (E)-1-(2-chloro-4-dimethylaminophenyl)-7-(4-hydroxyphenyl)hept-1-ene-3,5-dione] | 120 to 129 |
| CN(C)c1ccc(/C=C/C(=O)CC(=O)/C=C/c2ccc(N(C)C)cc2Cl)c(Cl)c1 [CU412, (1E,6E)-1,7-bis(2-chloro-4-dimethylaminophenyl)hepta-1,6-diene-3,5-dione] | 238 to 241 |
| COc1cc(O)cc(/C=C/C(=O)CC(=O)/C=C/c2ccc(OC)c(O)c2)c1 [CU182, (1E,6E)-1-(3-hydroxy-4-methoxyphenyl)-7-(3-hydroxy-5-methoxyphenyl)hepta-1,6-diene-3,5-dione] | 196 to 200 |
| O=C(/C=C/c1ccc(O)cc1)CC(=O)/C=C/c1ccc(-c2ccccn2)cc1 [CU328, (1E,6E)-1-(4-hydroxyphenyl)-7-[4-(pyridin-2-yl)phenyl]hepta-1,6-diene-3,5-dione] | 229 to 232 |
| COc1ccc2cc(/C=C/C(=O)CC(=O)/C=C/c3ccc(OC)c(O)c3)ccc2c1 [CU171, (1E,6E)-1-(3-hydroxy-4-methoxyphenyl)-7-(6-methoxynaphthalen-2-yl)hepta-1,6-diene-3,5-dione] | 175 to 181 |
| COc1cc(/C=C/C(=O)CC(=O)/C=C/c2cccs2)ccc1O [CU016, (1E,6E)-1-(4-hydroxy-3-methoxyphenyl)-7-(thiophen-2-yl)hepta-1,6-diene-3,5-dione] | 52 to 54 |
| COc1cc(/C=C/C(=O)CC(=O)/C=C/c2ccc(SC)cc2)ccc1O [CU012, (1E,6E)-1-(4-hydroxy-3-methoxyphenyl)-7-(4-methylthiophenyl)hepta-1,6-diene-3,5-dione] | 147 to 149 |
| COC(=O)c1ccccc1/C=C/C(=O)CC(=O)/C=C/c1ccc(O)cc1 [CU478, (1E,6E)-1-(4-hydroxyphenyl)-7-[2-(methoxycarbonyl)phenyl]hepta-1,6-diene-3,5-dione] | 145 to 150 |
| CCN(CC)c1ccc(/C=C/C(=O)CC(=O)/C=C/c2ccc(O)c(OC)c2)c(O)c1 [CU277, (1E,6E)-1-(4-diethylamino-2-hydroxyphenyl)-7-(4-hydroxy-3-methoxyphenyl)hepta-1,6-diene-3,5-dione] | 89 to 92 |
| COc1cc(/C=C/C(=O)CC(=O)/C=C/c2ccc(O)cc2)ccc1F [CU137, (1E,6E)-1-(4-fluoro-3-methoxyphenyl)-7-(4-hydroxyphenyl)hepta-1,6-diene-3,5-dione] | 136 to 143 |
